Test results as given in ChEMBL document CHEMBL1201862, “PubChem BioAssay data set” (2004).
Activity calls are given as the source filed them.

Assays:
[1] = target: T1, Microphthalmia-associated transcription factor (Homo sapiens, UniProt O75030); assay: reducers of TRPM1 reporter luminescence, concentration series – cell-based, SK-MEL-5, cherry-picked, set 3, MITF inhibitor project, dose response (AID 493073); format: functional;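 further: SK-MEL-5 melanoma cells with luciferase driven by the MITF target TRPM1 promoter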
T1 sequence (O75030 whole entry): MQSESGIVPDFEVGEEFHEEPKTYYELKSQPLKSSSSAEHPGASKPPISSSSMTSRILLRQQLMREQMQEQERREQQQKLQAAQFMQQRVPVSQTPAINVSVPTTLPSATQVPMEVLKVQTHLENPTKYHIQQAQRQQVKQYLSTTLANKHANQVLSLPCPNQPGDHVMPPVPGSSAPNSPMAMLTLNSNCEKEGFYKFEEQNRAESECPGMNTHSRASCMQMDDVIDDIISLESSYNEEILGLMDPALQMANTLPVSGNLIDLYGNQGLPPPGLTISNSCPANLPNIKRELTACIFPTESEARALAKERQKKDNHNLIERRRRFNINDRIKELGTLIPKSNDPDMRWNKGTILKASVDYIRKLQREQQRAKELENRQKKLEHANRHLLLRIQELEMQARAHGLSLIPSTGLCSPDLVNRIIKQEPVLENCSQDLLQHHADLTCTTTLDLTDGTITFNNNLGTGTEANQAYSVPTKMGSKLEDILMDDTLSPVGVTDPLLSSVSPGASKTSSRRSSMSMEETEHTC

A-375 = assay: MITF: Counter assay: A375 proliferation Measured in Cell-Based System Using Plate Reader - 2084-03_Inhibitor_Dose_DryPowder_Activity. [Related pubchem assays (depositor defined):AID488944]; format: functional; details: Homo sapiens
[2] = target: T2, Probable nicotinate-nucleotide adenylyltransferase (Staphylococcus aureus (strain N315), UniProt P65502); format: functional, Staphylococcus aureus subsp. aureus N315;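 on IC50 Mean: confirmatory dose-response retesting of NadD inhibitor hits first found in an ultra-high-throughput screen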
[3] = target: T3, Low molecular weight phosphotyrosine protein phosphatase (Homo sapiens, UniProt P24666); format: functional; details: read-out: IC50_Mean
T3 sequence (P24666 whole entry): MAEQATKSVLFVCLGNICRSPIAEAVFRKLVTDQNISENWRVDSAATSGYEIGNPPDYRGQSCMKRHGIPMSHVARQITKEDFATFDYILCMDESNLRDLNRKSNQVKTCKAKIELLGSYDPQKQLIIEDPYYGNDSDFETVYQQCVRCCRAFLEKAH

[4] = target: T3, Low molecular weight phosphotyrosine protein phosphatase; format: functional; details: read-out: IC50_Mean; remark: listed apart in the source
NS3 = NS3 (Hepatitis C virus, UniProt A3EZJ3); assay: PubChem AID 2173; parameters: species or system Hepacivirus hominis
[5] = target: T2, Probable nicotinate-nucleotide adenylyltransferase; format: functional, Staphylococcus aureus subsp. aureus N315; details: read-out: IC50_Mean
Genome polyprotein = Genome polyprotein (dengue virus type 2, UniProt P29990); assay: flavivirus cap methylation enzyme inhibition – biochemical, confirmation dose response, primary screen (AID 588689); format: functional
Vero = assay: viability of Vero cells under compound – cytotoxicity control for flavivirus capping enzyme inhibitors (AID 588742); format: functional; details: Chlorocebus sabaeus
[6] = target: NAD-dependent protein deacylase sirtuin-5, mitochondrial (Homo sapiens, UniProt Q9NXA8); assay: sirtuin-5 deacylation blockers, concentration series – biochemical, fluorescence imaging, cherry-pick, set 5, dose response (AID 720591);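 further: desuccinylation of succinyl peptide AMC substrate read as fluorescence after trypsin release; potency of inhibitors that lower fluorescence and may act on trypsin instead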
[7] = Late-stage probe development counterscreen for inhibitors of the Hepatitis C Virus non-structural protein 3 helicase (NS3): luminescence-based cell-based dose response assay to determine whether compounds that inhibit replication of HCV RNA replicon are cytotoxic. [Related pubchem assays (depositor defined):AID1800, AID1830, AID1845, AID1943, AID1945, AID2172, AID2173, AID2474, AID2476]; format: functional
Candida albicans = assay: resistant Candida growth with fluconazole co-treatment – CaCi-8 strain, Alamar Blue, dry powder, set 2, dose response (AID 488909); format: functional, organism-based
[8] = target: T4, Rac GTPase-activating protein 1 (Homo sapiens, UniProt Q9H0H5); assay: blockers of MgcRacGAP-driven Rac1 GTP hydrolysis – biochemical, ADP Hunter fluorescence, primary and confirmatory, confirmation (AID 624330); format: functional
T4 sequence (Q9H0H5 whole entry): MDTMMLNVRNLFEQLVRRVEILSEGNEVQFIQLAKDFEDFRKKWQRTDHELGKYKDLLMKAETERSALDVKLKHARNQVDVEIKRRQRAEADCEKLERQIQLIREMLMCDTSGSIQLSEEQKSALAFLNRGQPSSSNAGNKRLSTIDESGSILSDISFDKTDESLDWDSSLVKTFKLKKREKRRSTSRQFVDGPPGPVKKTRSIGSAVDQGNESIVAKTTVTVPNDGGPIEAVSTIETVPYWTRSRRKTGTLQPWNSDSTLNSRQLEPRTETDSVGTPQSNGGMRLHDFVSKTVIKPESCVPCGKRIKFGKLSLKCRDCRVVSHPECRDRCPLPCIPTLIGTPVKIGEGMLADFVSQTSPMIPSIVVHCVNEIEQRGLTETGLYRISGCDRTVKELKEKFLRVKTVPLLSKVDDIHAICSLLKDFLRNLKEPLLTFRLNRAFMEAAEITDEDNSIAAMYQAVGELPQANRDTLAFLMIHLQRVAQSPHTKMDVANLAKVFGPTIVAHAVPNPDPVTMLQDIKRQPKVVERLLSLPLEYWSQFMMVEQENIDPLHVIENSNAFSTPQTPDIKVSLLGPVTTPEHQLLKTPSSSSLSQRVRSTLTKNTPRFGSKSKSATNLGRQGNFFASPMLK

[9] = test system: Streptococcus sp. 'group A'; assay: Streptococcus pyogenes SK(-)GAS viability under kanamycin – luminescence, BacTiterGlo, confirmation, counter-screen for streptokinase expression inhibitor project, dose response (AID 1900); format: functional, organism-based
ORF 73 = target: T5, ORF 73 (Human herpesvirus 8, UniProt O40947); assay: KSHV LANA DNA-binding disruption – biochemical, fluorescence polarization, cherry-picked samples, dose response (AID 504725); parameters: species or system Human gammaherpesvirus 8;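 further: fluorescence polarization of a labeled DNA duplex reporting LANA DNA binding; potency is for inhibitors that block LANA binding to the DNA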
T5 sequence (O40947 whole entry): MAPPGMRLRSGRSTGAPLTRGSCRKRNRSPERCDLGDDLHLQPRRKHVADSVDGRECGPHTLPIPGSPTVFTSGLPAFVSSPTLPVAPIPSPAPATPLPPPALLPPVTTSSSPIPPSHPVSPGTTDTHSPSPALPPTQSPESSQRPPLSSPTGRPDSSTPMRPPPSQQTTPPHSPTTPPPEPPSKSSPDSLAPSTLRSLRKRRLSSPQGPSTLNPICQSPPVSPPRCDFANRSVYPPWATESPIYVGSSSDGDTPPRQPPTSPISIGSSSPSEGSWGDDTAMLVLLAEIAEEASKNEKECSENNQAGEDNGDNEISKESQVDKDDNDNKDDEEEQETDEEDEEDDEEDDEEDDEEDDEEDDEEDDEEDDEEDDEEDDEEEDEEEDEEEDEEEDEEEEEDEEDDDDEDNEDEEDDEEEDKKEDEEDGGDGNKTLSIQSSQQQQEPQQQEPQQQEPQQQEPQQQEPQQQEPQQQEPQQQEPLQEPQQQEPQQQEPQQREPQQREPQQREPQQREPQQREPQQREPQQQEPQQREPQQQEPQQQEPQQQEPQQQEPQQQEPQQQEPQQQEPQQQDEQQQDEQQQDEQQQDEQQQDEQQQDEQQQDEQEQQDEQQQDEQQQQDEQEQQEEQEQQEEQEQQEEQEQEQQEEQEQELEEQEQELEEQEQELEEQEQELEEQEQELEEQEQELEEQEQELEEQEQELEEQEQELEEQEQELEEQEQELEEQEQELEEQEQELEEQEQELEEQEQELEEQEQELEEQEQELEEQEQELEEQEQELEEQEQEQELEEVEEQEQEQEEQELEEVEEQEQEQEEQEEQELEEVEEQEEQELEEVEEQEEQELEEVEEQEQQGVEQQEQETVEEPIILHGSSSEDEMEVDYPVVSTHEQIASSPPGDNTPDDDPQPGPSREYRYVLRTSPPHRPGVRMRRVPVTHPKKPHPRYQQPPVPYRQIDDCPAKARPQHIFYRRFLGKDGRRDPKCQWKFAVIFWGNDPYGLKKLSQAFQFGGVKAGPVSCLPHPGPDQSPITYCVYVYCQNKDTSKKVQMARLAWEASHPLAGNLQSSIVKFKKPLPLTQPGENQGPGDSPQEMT

[10] = target: Induced myeloid leukemia cell differentiation protein Mcl-1 (Homo sapiens, UniProt Q07820); assay: blockers of MCL1 binding to BIM peptide – biochemical, fluorescence polarization, BIM-BH3 peptide, 1536-well, dose response (AID 2217)
Bcl-2-like protein 1 = Bcl-2-like protein 1 (Homo sapiens, UniProt Q07817); assay: blockers of BCLXL peptide binding – biochemical, fluorescence polarization, 1536-well, selectivity assay for MCL1 inhibitor project, dose response (AID 2218)
Salmon testes DNA = assay: acridine orange-DNA binding displacement – biochemical, fluorescence polarization, cherry-picked samples, set 2, artefact control for KSHV LANA DNA-binding inhibitor project, dose response (AID 504727); parameters: species or system Salmonidae
Escherichia coli [11] = assay: microbe, parasite or virus in culture
[12] = off-target signal loss in HeLa-CEM21 co-culture – HeLa F-luc CTL cells, cherry-picked, counter-screen for HIV-1 Env fusion inhibitor project, dose response (AID 652040); format: functional, cell-based;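 further: potency for signal decrease marking cytotoxic or nonspecific inhibition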
[13] = viability loss in THP-1 monocytes – THP-1 cells, cytotoxicity control for Vif-APOBEC3G degradation inhibitor project, dose response (AID 1117359); format: functional; details: THP-1
Streptococcus = assay: GAS UMAA2166 growth inhibition – luminescence, BacTiterGlo, counter-screen for streptokinase expression inhibitor project, dose response (AID 1915); format: functional, organism-based;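 further: potency for reduction of bacterial viability or growth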
[14] = blockers of HIV-1 ZM109 envelope-driven cell-cell fusion – HeLa effector, CEM target cells, luciferase, cherry-pick, dose response (AID 652058); format: functional, cell-based;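 further: luciferase signal from HIV-1 Env mediated cell-cell fusion of effector and target cells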
[15] = HIV-1 AD8 envelope cell-cell fusion blockers – cherry-pick, dose response (AID 652062); format: functional, cell-based;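 further: luciferase signal from cell-cell fusion driven by HIV-1 clade B AD8 Env; potency is for inhibitors of fusion seen as a drop in luminescence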
Escherichia coli [16] = assay: microbe, parasite or virus in culture; remark: listed apart in the source
[17] = blockers of HIV-1 envelope-mediated cell-cell fusion – cherry-pick, dose response (AID 652057); format: functional, cell-based

T2 sequence (P65502 whole entry): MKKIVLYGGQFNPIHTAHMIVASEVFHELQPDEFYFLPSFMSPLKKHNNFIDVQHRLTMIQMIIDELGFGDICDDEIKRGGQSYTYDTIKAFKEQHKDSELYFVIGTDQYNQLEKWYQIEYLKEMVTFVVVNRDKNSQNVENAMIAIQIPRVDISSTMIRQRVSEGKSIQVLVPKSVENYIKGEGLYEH
Chain of NS3 (A3EZJ3 whole entry): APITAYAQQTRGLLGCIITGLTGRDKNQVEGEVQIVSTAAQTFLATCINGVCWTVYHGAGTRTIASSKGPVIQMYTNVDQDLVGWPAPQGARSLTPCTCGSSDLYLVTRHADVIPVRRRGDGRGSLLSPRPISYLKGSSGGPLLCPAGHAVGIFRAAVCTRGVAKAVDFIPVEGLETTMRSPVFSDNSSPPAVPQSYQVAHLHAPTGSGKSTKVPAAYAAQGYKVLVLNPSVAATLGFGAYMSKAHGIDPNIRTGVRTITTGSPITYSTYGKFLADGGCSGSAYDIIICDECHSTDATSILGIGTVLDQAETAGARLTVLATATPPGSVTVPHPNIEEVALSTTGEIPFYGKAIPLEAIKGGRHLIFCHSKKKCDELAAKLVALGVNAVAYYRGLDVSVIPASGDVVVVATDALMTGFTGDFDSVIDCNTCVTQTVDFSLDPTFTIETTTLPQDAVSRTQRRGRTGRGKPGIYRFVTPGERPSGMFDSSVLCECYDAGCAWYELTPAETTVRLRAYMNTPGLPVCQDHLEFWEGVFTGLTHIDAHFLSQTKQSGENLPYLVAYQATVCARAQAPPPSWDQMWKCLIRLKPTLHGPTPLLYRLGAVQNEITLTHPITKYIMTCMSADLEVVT
Chain of Induced myeloid leukemia cell differentiation protein Mcl-1 (Q07820 whole entry): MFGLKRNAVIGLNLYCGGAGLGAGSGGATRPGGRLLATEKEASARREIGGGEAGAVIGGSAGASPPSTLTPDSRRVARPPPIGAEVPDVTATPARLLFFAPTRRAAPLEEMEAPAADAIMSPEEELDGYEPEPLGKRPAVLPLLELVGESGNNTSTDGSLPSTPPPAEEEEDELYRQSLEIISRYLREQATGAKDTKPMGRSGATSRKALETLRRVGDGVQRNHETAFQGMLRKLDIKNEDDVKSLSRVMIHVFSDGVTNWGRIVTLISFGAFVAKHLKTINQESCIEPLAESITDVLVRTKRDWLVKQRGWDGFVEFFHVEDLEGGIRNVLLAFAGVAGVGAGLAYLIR
Chain of Genome polyprotein (P29990 2492-3391 limits assumed): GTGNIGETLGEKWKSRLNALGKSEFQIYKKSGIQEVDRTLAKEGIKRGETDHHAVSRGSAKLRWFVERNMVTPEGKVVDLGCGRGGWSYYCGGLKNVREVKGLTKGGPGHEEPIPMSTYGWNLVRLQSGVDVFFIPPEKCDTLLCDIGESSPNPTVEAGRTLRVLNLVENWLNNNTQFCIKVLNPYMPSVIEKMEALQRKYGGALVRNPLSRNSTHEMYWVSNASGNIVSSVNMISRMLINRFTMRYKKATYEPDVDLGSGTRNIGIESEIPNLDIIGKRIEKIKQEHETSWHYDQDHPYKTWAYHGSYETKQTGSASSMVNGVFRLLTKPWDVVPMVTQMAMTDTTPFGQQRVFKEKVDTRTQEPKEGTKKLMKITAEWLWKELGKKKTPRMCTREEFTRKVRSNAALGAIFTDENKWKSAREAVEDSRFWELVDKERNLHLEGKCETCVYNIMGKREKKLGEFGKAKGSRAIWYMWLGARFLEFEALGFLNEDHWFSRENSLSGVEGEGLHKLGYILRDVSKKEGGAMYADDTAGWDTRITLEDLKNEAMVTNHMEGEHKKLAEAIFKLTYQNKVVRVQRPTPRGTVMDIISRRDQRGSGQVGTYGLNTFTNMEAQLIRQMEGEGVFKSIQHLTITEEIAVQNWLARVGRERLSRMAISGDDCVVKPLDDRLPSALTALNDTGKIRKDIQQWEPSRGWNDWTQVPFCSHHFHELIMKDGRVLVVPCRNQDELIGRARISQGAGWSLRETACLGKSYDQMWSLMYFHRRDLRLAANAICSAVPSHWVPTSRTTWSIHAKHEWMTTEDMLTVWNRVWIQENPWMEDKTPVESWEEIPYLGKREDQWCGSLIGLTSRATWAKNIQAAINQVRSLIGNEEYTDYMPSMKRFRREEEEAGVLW
Chain of NAD-dependent protein deacylase sirtuin-5, mitochondrial (Q9NXA8 whole entry): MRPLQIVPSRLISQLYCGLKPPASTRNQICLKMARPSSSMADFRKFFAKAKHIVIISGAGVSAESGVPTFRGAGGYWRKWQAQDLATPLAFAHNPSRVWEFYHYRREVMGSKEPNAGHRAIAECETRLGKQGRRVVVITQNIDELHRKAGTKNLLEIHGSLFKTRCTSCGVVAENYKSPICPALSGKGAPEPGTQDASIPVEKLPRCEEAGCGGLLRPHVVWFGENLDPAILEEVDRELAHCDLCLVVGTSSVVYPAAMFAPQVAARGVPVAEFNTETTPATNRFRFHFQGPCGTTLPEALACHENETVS
Chain of Bcl-2-like protein 1 (Q07817 whole entry): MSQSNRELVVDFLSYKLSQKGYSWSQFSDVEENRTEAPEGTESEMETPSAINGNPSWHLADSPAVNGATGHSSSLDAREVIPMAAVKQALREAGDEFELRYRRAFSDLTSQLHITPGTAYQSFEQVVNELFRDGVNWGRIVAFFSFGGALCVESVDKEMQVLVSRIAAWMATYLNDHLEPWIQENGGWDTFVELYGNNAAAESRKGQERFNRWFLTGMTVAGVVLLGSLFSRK

CC(C)(C)c1ccc(OCCCNCc2ccccc2)cc1
AC50 [1]: 18.4 µM (active)
AC50 (A-375): 29.7 µM (active)

Cc1cc(N2C(=O)C(O)=C(C(=O)c3ccc(C)o3)C2c2ccc(OCc3ccccc3)cc2)no1 (configuration not stated)
IC50 [2]: 8.93 µM (active)
IC50 [3]: > 80 µM (inactive)
IC50 [4]: 2.98 µM (active)
IC50 (NS3): 1.74 µM (active)
IC50 [5]: 28.9 µM (active)
IC50 (Genome polyprotein): > 100 µM (active)
CC50 (Vero): > 40 µM (active)
AC50 [6]: > 30 µM (inactive)
CC50 [7]: > 100 µM (inactive)

COc1cccc2c(N3CCN(C(=O)c4ccc(Cl)cc4)CC3)cc(C)nc12
AC50 (Candida albicans): > 260 µM (inactive)

CN(C)c1ccc(O)c2c1CC1CC3[C@@H](N(C)C)C(O)=C(C(N)=O)C(=O)[C@]3(O)C(O)=C1C2=O (some centres not stated)
IC50 [8]: 120 µM (active)
EC50 [9]: 0.079 µM (active)
AC50 (ORF 73): 25.6 µM (active)
IC50 [10]: 9.39 µM (active)
IC50 (NS3): > 109 µM (not active)
IC50 (Bcl-2-like protein 1): > 109 µM (not active)
AC50 (Salmon testes DNA): 46.2 µM (active)
AC50 (Escherichia coli [11]): 11.2 µM (active)
AC50 [12]: < 0.26 µM (active)
CC50 [13]: > 40 µM (active)
EC50 (Streptococcus): 0.173 µM (active)
AC50 [14]: < 0.26 µM (active)
AC50 [15]: < 0.26 µM (active)
AC50 (Escherichia coli [16]): 1.06 µM (active)
AC50 [17]: < 0.26 µM (active)
